Reference: patent US10322995B2, “Substituted cyano cycloalkyl penta-2,4-dienes, cyano cycloalkyl pent-2-en-4-ynes, cyano heterocyclyl penta-2,4-dienes and cyano heterocyclyl pent-2-en-4-ynes as active substances against abiotic plant stress” (BAYER CROPSCIENCE AKTIENGESELLSCHAFT, priority 2014, dated 2019)
Read-outs that look alike come from different tables or passages of the source.

Legend:
[1] = biological target: T1, phosphatase ABI1 via the co-regulator RCAR11/PYR1 (Arabidopsis thaliana, UniProt O49686+P49597); test: In vitro assay: inhibition of the phosphatase ABI1 via the co-regulator RCAR11/PYR1, MUP dephosphorylation, fluorescence; assay type: biochemical; parameters: inhibition: dose or concentration left out as unconfirmed; settings: for ABI1 inhibition: concentration of 5 mM of the substance in a solution of DMSO and water; for inhibition: read-out: ABI1 inhibition
T1 sequence (O49686 1-191): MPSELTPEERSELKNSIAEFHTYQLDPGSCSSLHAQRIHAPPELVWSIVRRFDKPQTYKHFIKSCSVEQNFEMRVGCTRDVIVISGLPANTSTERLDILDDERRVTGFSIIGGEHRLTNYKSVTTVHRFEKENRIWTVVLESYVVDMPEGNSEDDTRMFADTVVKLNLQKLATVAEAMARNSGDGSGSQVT
T1 sequence (P49597 1-434): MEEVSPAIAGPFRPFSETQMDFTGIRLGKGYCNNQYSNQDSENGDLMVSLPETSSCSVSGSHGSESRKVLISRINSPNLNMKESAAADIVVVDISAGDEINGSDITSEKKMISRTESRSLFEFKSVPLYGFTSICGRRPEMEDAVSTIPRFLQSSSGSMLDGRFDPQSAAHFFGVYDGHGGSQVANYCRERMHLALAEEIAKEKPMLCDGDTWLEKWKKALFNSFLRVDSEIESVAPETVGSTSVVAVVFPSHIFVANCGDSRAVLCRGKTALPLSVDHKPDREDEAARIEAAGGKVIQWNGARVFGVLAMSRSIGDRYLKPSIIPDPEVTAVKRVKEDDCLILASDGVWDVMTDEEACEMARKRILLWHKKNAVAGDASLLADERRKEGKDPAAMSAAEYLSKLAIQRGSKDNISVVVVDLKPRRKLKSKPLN
From the text: Effects of the phytohormone abscisic acid (ABA) on the behaviour of plants under abiotic stress and the mechanism of action of ABA are described in the literature (cf. Abrams et al, WO97/23441, Cutler, Park et al. Science, 2009, 324, 1068; Grill et al. Science, 2009, 324, 1064; Tanokura et al. Biophysics, 2011, 7, 123; Schroeder et al. Plant J. 2010, 61, 290). Therefore, it is possible with the aid of a suitable in vitro test system to derive a correlation between the action of ABA and the stress response of a plant under abiotic stress. Under drought stress, plants form the phytohormone abscisic acid (ABA). This binds, along with a co-regulator (Regulatory Component of ABA-Receptor=RCAR according to Grill et al. Science, 2009, 324, 1064 or PYR/PYL according to Cutler et al. Science, 2009, 324, 1068), to a phosphatase (e.g. ABI1, a type 2C protein phosphatase, also abbreviated to PP2C) and inhibits its activity. As a result, a “downstream” kinase (e.g. SnRK2) is no longer dephosphorylated. This kinase, which is thus active, via phosphorylation of transcription factors (e.g. AREB/ABF, vgl. Yoshida et al., Plant J. 2010, 61, 672), switches on a genetic protection programme to increase drought stress tolerance.
The assay described hereinafter utilizes the inhibition of the phosphatase ABI1 via the co-regulator RCAR11/PYR1 aus Arabidopsis thaliana.
For the determination of activity, the dephosphorylation of 4-methylumbelliferyl phosphate (MUP) was measured at 460 nm. The in vitro assay was conducted in Greiner 384-well PS microplates F-well, using two controls: a) dimethyl sulphoxide (DMSO) 0.5% (f.c.) and b) 5 μM (f.c.) abscisic acid (ABA). […] The substance solution thus obtained, if necessary, was stirred with esterase from porcine liver (EC 3.1.1.1) at room temperature for 3 h and centrifuged at 4000 rpm for 30 min. A total volume of 45 μl was introduced into each cavity of the microplate, having the following composition: • 1) 5 μl of substance solution, i.e. a) DMSO 5% or b) abscisic acid solution or c) the corresponding example compound of the general formula (I) dissolved in 5% DMSO. • 2) 20 μl of enzyme buffer mix, composed of a) 40% by vol. of enzyme buffer (10 ml contain equal proportions by volume of 500 mM Tris-HCl pH8, 500 mM NaCl, 3.33 mM MnCl2, 40 mM dithiothreitol (DTT)), b) 4% by vol. of ABI1 dilution (protein stock solution was diluted so as to give, after addition, a final concentration in the assay of 0.15 μg ABI1/well), c) 4% by vol. of RCAR11 dilution (enzyme stock was diluted so as to give, on addition of the dilution to the enzyme buffer mix, a final concentration in the assay of 0.30 μg enzyme/well), d) 5% by vol. of Tween20 (1%), e) 47% by vol. H2O bi-dist. • 3) 20 μl of substrate mix, composed of a) 10% by vol. of 500 mM Tris-HCl pH8, b) 10% by vol. of 500 mM NaCl, c) 10% by vol. of 3.33 mM MnCl2, d) 5% by vol. of 25 mM MUP, 5% by vol. of Tween20 (1%), 60% by vol. of H2O bi-dist.
Enzyme buffer mix and substrate mix were made up 5 minutes prior to the addition and warmed to a temperature of 35° C. On completion of pipetting of all the solutions and on completion of mixing, the plate was incubated at 35° C. for 20 minutes. Finally, a relative fluorescence measurement was made at 35° C. with a BMG Labtech “POLARstar Optima” microplate reader using a 340/10 nm excitation filter and a 460 nm emission filter. The efficacy of the compounds of the general formula (I) is reported in the table which follows using abscisic acid (No. 64) as comparative substance according to the following classification: ++++ (inhibition≥90%), +++ (90%>inhibition≥70%), ++ (70%>inhibition≥50%), +(50%>inhibition≥30%).
Effects of selected compounds of the general formula (I) in the above-described in vitro assay at a concentration of 5 mM of the substance of the general formula (I) in question in a solution of DMSO and water: […]

Brassica napus (BRSNS) = test: In vivo analyses Part B: drought stress, appearance vs stressed control plants in categories (BRSNS); settings: spray application 250 g/ha, category vs stressed control plants, 2-3 pots
Procedure: Seeds of monocotyledonous and dicotyledonous crop plants were sown in sandy loam in plastic pots, covered with soil or sand and cultivated in a greenhouse under good growth conditions. The test plants were treated at the early leaf stage (BBCH10-BBCH13). To assure uniform water supply before commencement of stress, the potted plants were supplied with water by dam irrigation prior to substance application. The inventive compounds, formulated in the form of wettable powders (WP), were sprayed onto the green parts of the plants as an aqueous suspension at an equivalent water application rate of 600 I/ha with addition of 0.2% wetting agent (e.g. agrotin). Substance application was followed immediately by stress treatment of the plants. Drought stress was induced by gradual drying out under the following conditions: “Day”: 14 hours with illumination at 26-30° C. “Night”: 10 hours without illumination at 18-20° C. The duration of the respective stress phases was guided mainly by the condition of the stressed control plants. It was ended (by re-irrigating and transfer to a greenhouse with good growth conditions) as soon as irreversible damage was observed on the stressed control plants. The end of the stress phase was followed by an about 4-7-day recovery phase, during which the plants were once again kept under good growth conditions in a greenhouse. The duration of the recovery phase was guided mainly by when the trial plants had attained a state which enabled visual scoring of potential effects, and was therefore variable. Once this juncture had been reached, the appearance of the plants treated with test substances was recorded in comparison to the stressed control plants by the following categories: [table] In order to rule out any influence on the effects observed by any fungicidal or insecticidal action of the test compounds, it was additionally ensured that the tests proceeded without fungal infection or insect infestation. For each substance and dosage, 2-3 pots were treated and evaluated. BRSNS=Brassica napus

[2] = MUP dephosphorylation, fluorescence 460 nm

Structure (SMILES) | ABI1 inhibition [1, 2] | other results
CCOC(=O)C=C(C=CC(O)(C(C)C)C1(C#N)CC1)C1CCCC1 (racemic) [I.2-130] | +++ (90%>inhibition≥70%) | 
CCOC(=O)C=C(C#CC(O)(c1cccc(F)c1)C1(C#N)CC1)C(F)(F)F (racemic) [I.1-783] | +++ (90%>inhibition≥70%) | 
CCOC(=O)C=C(C#CC(O)(C(CC)CC)C1(C#N)CC1)C(F)(F)F (racemic) [I.1-723] | +++ (90%>inhibition≥70%) | 
CC/C(C#CC(O)(c1ccc(F)cc1)C1(C#N)CC1)=C/C(=O)OC (stereo not drawn) [I.1-502] | ++++ (inhibition≥90%) | Effect (BRSNS) (Brassica napus (BRSNS)): 20-30
CC/C(C#CC(O)(c1ccc(F)cc1)C1(C#N)CC1)=C/C(=O)OCCOC (stereo not drawn) [I.1-614] | ++++ (inhibition≥90%) | Effect (BRSNS) (Brassica napus (BRSNS)): 10-20
CC(C=CC(O)(C(C)C)C1(C#N)CC1)=CC(=O)O (racemic) [I.2-134] | ++++ (inhibition≥90%) | 
CCOC(=O)/C=C(/C)C#CC(C)(O)C1(C#N)CC1 (stereo not drawn) [I.1-36] | +++ (90%>inhibition≥70%) | 
COC(=O)C=C(C=CC(O)(C1CCCCC1)C1(C#N)CC1)C(F)(F)F (racemic) [I.2-581] | ++++ (inhibition≥90%) | 
COC(=O)/C=C(\C#CC(O)(c1ccc(F)cc1)C1(C#N)CC1)C(F)(F)F (stereo not drawn) [I.1-520] | ++++ (inhibition≥90%) | 
CCOC(=O)C=C(C)C#CC(O)(c1ccc(C)cc1)C1(C#N)CC1 (racemic) [I.1-822] | +++ (90%>inhibition≥70%) | 
CCC(=C/C(=O)OC)/C=C/C(O)(C1CCCCC1)C1(C#N)CC1 (stereo not drawn) [I.2-579, Methyl (2Z,4E)-6-(1-cyanocyclopropyl)-6-cyclohexyl-3-ethyl-6-hydroxyhexa-2,4-dienoate] |  | inhibition [1, 2]: > 90%
CCCOC(=O)C=C(C#CC(O)(c1ccc(C)cc1)C1(C#N)CC1)C(F)(F)F (racemic) [I.1-888] | +++ (90%>inhibition≥70%) | 
CCOC(=O)C=C(C#CC(O)(c1ccc(C)cc1)C1(C#N)CC1)C(F)(F)F (racemic) [I.1-813] | +++ (90%>inhibition≥70%) | 
COC(=O)/C=C(\C#CC(O)(C1CCCCC1)C1(C#N)CC1)C(F)(F)F (stereo not drawn) [I.1-692] | +++ (90%>inhibition≥70%) | 
CCCOC(=O)C=C(C=CC(O)(C1CCCCC1)C1(C#N)CC1)C(F)(F)F (racemic) [I.2-582] | ++++ (inhibition≥90%) | 
CC/C(C#CC(O)(c1ccc(F)cc1)C1(C#N)CC1)=C/C(=O)NC1CC1 (stereo not drawn) [I.1-557] | ++ (70%>inhibition≥50%) | 

Structure (SMILES) | ABI1 inhibition [1, 2] | other results
CC/C(C#CC(O)(c1ccccc1)C1(C#N)CC1)=C/C(=O)OCCOC (stereo not drawn) [I.1-610] | ++++ (inhibition≥90%) | 
CCOC(=O)/C=C(/C)C#CC(O)(c1ccccc1)C1(C#N)CC1 (stereo not drawn) [I.1.236] |  | inhibition [1, 2]: > 90%
CCOC(=O)/C=C(\C#CC(O)(c1ccccc1)C1(C#N)CC1)CC (stereo not drawn) [I.1-203] | ++++ (inhibition≥90%) | 
CCC(CC)C(O)(/C=C/C(=C\C(=O)OC)C(F)(F)F)C1(C#N)CC1 (stereo not drawn) [I.2-585, Methyl (2E,4E)-6-(1-cyanocyclopropyl)-7-ethyl-6-hydroxy-3-(trifluoromethyl)nona-2,4-dienoate] |  | inhibition [1, 2]: > 90%
CCC(C#CC(O)(c1ccc(C)cc1)C1(C#N)CC1)=CC(=O)OCCOC (racemic) [I.1-801] | ++++ (inhibition≥90%) | 
CC/C(C#CC(O)(c1ccc(F)cc1)C1(C#N)CC1)=C/C(=O)NC(C)C (stereo not drawn) [I.1-558] | ++ (70%>inhibition≥50%) | 
CC1=CC(=O)CC(C)(C)[C@@]1(O)/C=C/C(C)=C\C(=O)O [abscisic acid, reference compound] |  | inhibition [1]: > 90%
CCOC(=O)C=C(C)C#CC(O)(c1cccc(F)c1)C1(C#N)CC1 (racemic) [I.1-792] | +++ (90%>inhibition≥70%) | 
COC(=O)/C=C(\C#CC(O)(C1CC1)C1(C#N)CC1)C(F)(F)F (stereo not drawn) [I.1-632] | ++++ (inhibition≥90%) | 
COC(=O)/C=C(\C#CC(O)(c1ccccc1)C1(C#N)CC1)C(F)(F)F (stereo not drawn) [I.1-220] | ++++ (inhibition≥90%) | 
CCCOC(=O)/C=C(\C#CC(O)(c1ccc(F)cc1)C1(C#N)CC1)CC (stereo not drawn) [I.1-613] | ++++ (inhibition≥90%) | 
CCCC(C#CC(O)(c1cccc(F)c1)C1(C#N)CC1)=CC(=O)O (racemic) [I.1-773] | +++ (90%>inhibition≥70%) | 
COC(=O)C=C(C#CC(O)(c1cccc(F)c1)C1(C#N)CC1)C(F)(F)F (racemic) [I.1-782] | +++ (90%>inhibition≥70%) | 
CCC(C#CC(O)(c1ccc(C)cc1)C1(C#N)CC1)=CC(=O)OC (racemic) [I.1-798] | ++++ (inhibition≥90%) | 
CCC(C#CC(O)(c1cccc(F)c1)C1(C#N)CC1)=CC(=O)OC (racemic) [I.1-768] | ++++ (inhibition≥90%) | 
